In publication PMC8359458 (British Journal of Clinical Pharmacology, 2021):
Where two headings read alike, the source gives them in different places.

Assays:
[1] = format: in vivo, human; conditions: for AUC / Cmax: geometric mean (CV%); for Tmax: median (min‐max); for half-life: arithmetic mean (SD)
CYP3A4 [2] = conditions: cited from earlier work
CYP3A [3] = assay: Cocktail DDI study: effect of zanubrutinib on CYP3A probe midazolam; format: in vivo, human
CYP2C19 [4] = assay: Cocktail DDI study: effect of zanubrutinib on CYP2C19 probe omeprazole; format: in vivo, human
BCRP = assay: Cocktail DDI study: effect of zanubrutinib on BCRP probe rosuvastatin; format: in vivo, human; conditions: rosuvastatin with/without zanubrutinib 160 mg b.i.d.
[5] = cited from earlier work
[6] = tested on: organic cation transporter (OCT) 2; conditions: concentrations up to 5.0 μM; cited from earlier work
CYP2B6 [7] = assay: CYP mRNA induction in human hepatocytes; format: in vitro ADME; conditions: according to FDA guidance, in vitro
CYP3A [8] = conditions: at 3 and 30 μM, human hepatocytes; cited from earlier work
[9] = tested on: breast cancer resistance protein (BCRP); conditions: concentrations up to 5.0 μM; cited from earlier work
Safety analyses = format: in vivo, human; conditions: for incidence of TEAEs: 17 subjects
CYP2C8 [10] = conditions: at 3 and 30 μM, human hepatocytes; cited from earlier work
[11] = tested on: breast cancer resistance protein (BCRP); assay: In vitro transporter inhibition; format: in vitro ADME; conditions: 160 mg zanubrutinib b.i.d.; FDA cutoff 10
[12] = Plasma PK of zanubrutinib alone and with omeprazole 20 mg; format: in vivo; conditions: male, human, oral
[13] = oral, patients with B‐cell malignancies; cited from earlier work
[14] = tested on: organic anion transporter (OAT) 1; conditions: concentrations up to 5.0 μM; cited from earlier work
P‐glycoprotein (P‐gp) [15] = assay: In vitro transporter inhibition; format: in vitro ADME; conditions: 160 mg zanubrutinib b.i.d.; FDA cutoff 10
CYP2C8 [16] = conditions: human liver microsomes, reversible inhibition; cited from earlier work
CYP2C19 [17] = conditions: human liver microsomes, reversible inhibition; cited from earlier work
CYP2C9 [18] = conditions: at 3 and 30 μM, human hepatocytes; cited from earlier work
P‐glycoprotein (P‐gp) [19] = conditions: concentrations up to 10.0 μM; cited from earlier work
OAT3 = conditions: concentrations up to 5.0 μM; cited from earlier work
CYP2C9 [20] = conditions: human liver microsomes, reversible inhibition; cited from earlier work
CYP2B6 [21] = conditions: at 3 and 30 μM, human hepatocytes; cited from earlier work
OATP1B3 = conditions: concentrations up to 5.0 μM; cited from earlier work
OATP1B1 = conditions: concentrations up to 5.0 μM; cited from earlier work
CYP3A4/5 = conditions: cited from earlier work
CYP3A4 [22] = conditions: co‐administration with rifampicin; cited from earlier work
[23] = male, human, plasma, oral, AUC0‐t, probe drugs + zanubrutinib 160 mg b.i.d.
[24] = male, human, plasma, oral, Cmax, probe drugs + zanubrutinib 160 mg b.i.d.
[25] = midazolam with/without zanubrutinib 160 mg b.i.d.
[26] = male, human, plasma, oral, AUC0‐∞, probe drugs + zanubrutinib 160 mg b.i.d.
[27] = male, human, plasma, oral, AUC0‐∞, probe drugs only
[28] = male, human, plasma, oral, Cmax, probe drugs only
[29] = male, human, plasma, oral, t1/2, probe drugs only
[30] = probe drugs + zanubrutinib 160 mg b.i.d.
[31] = omeprazole with/without zanubrutinib 160 mg b.i.d.

## C[C@H]1O[C@@H](O[C@H]2[C@@H](O)C[C@H](O[C@H]3[C@@H](O)C[C@H](O[C@H]4CC[C@@]5(C)[C@H](CC[C@@H]6[C@@H]5C[C@@H](O)[C@]5(C)[C@@H](C7=CC(=O)OC7)CC[C@]65O)C4)O[C@@H]3C)O[C@@H]2C)C[C@H](O)[C@@H]1O [Digoxin, digoxin]
[1]; male, human, plasma, oral, 0.25 mg, AUC0‐t, probe drugs only
  AUC: 6.54 ng·h/mL
[1]; [23]
  AUC: 7.28 ng·h/mL
[1]; [24]
  Cmax: 1.56 ng/mL
[1]; probe drugs only
  Tmax: 1.00 (0.500–2.00) h

## Cc1ncc2n1-c1ccc(Cl)cc1C(c1ccccc1F)=NC2 [Midazolam, midazolam]
CYP3A4 [2]; 7 days of rifampin dosing
  mean AUC ratio of midazolam with and without rifampin: 0.12
CYP3A4 [2]; 14 days of rifampin dosing
  mean AUC ratio of midazolam with and without rifampin: 0.11
CYP3A [3]; co‐administration of zanubrutinib
  mean changes (decrease) to AUC0‐t, AUC0‐∞ and Cmax: less than 50%
CYP3A [3]; [25]
  Ratio of GLSM, AUC0‐t: 52.52%
  Ratio of GLSM, AUC0‐∞: 52.58%
  Ratio of GLSM, Cmax: 70.17%
[1]; in vivo
  within‐subject variation in Cmax and AUC: ≤ 17.6%
[1]; [23]
  AUC: 14.3 ng·h/mL
[1]; [26]
  AUC: 15 ng·h/mL
[1]; [27]
  AUC: 28.2 ng·h/mL
[1]; [24]
  Cmax: 7.12 ng/mL
[1]; [28]
  Cmax: 10.2 ng/mL
[1]; [29]
  half-life: 4.87 h
[1]; [30]
  Tmax: 0.500 (0.500–1.00) h

## COc1ccc2[nH]c([S+]([O-])Cc3ncc(C)c(OC)c3C)nc2c1 (stereo not drawn) [Omeprazole, omeprazole]
CYP2C19 [4]; in vivo
  mean AUC0‐t lower with zanubrutinib co‐administration: approximately 36%
  mean Cmax lower with zanubrutinib co‐administration: ~21%
CYP2C19 [4]; [31]
  Ratio of GLSM, AUC0‐t: 63.52%
  Ratio of GLSM, Cmax: 79.5%
[1]; in vivo
  within‐subject variation in AUC: 15%
  within‐subject variation in Cmax: 35%
[1]; [23]
  AUC: 282 ng·h/mL
[1]; [24]
  Cmax: 182 ng/mL
[1]; [28]
  Cmax: 229 ng/mL
[1]; probe drugs only
  Tmax: 2.00 (1.00–8.00) h

## CC(C)c1nc(N(C)S(C)(=O)=O)nc(-c2ccc(F)cc2)c1/C=C/[C@@H](O)C[C@@H](O)CC(=O)O [Rosuvastatin, rosuvastatin]
BCRP
  Ratio of GLSM, AUC0‐t: 89.45%
  Ratio of GLSM, AUC0‐∞: 89.29%
  Ratio of GLSM, Cmax: 108%
[1]; in vivo
  within‐subject variation in Cmax and AUC: ≤ 27.5%
[1]; [23]
  AUC: 32.9 ng·h/mL
[1]; [26]
  AUC: 34.4 ng·h/mL
[1]; [27]
  AUC: 41 ng·h/mL
[1]; [24]
  Cmax: 3.75 ng/mL
[1]; [28]
  Cmax: 3.47 ng/mL
[1]; male, human, plasma, oral, t1/2, probe drugs + zanubrutinib 160 mg b.i.d.
  half-life: 11.2 h
[1]; [29]
  half-life: 12.9 h
[1]; [30]
  Tmax: 3.00 (1.50–4.05) h

## CC(=O)C[C@@H](c1ccccc1)c1c(O)c2ccccc2oc1=O [S‐warfarin]
[1]; [30]
  Cmax: 666 (22.2) ng/mL
  Tmax: 1.00 (0.500–2.00) h
[1]; probe drugs only
  Cmax: 698 (14.9) ng/mL
  Tmax: 1.00 (0.500–4.00) h

## C=CC(=O)N1CCC([C@@H]2CCNc3c(C(N)=O)c(-c4ccc(Oc5ccccc5)cc4)nn32)CC1 [Zanubrutinib, zanubrutinib]
[5]
  solubility: pH‐dependent solubility
[6]
  inhibition of transporter: nor a significant inhibitor
CYP2B6 [7]
  R3 value for induction: 0.55
CYP3A [8]
  increase in mRNA: ≥ 2 fold
[9]
  inhibition of transporter: nor a significant inhibitor
Safety analyses; 160 mg b.i.d. alone or co‐administered with probe drugs
  tolerability: generally well tolerated
Safety analyses; probe drugs plus zanubrutinib
  incidence of TEAEs: 11.8%
Safety analyses; zanubrutinib only
  incidence of TEAEs: 11.8%
CYP2C8 [10]
  increase in mRNA: ≥ 2 fold
[11]
  ratio of intestinal concentration and in vitro IC50 ([I]2/IC50): […]
[12]; 20 mg
  Cmax: 233 ng/mL
  Tmax: 2 h
  half-life: 2.93 h
[12]; 20 mg, AUC0‐t, with omeprazole 20 mg (Day 18), n = 17, geometric mean (CV%)
  AUC: 1070 ng·h/mL
[12]; 20 mg, AUC0‐τ, with omeprazole 20 mg (Day 18), τ = 12 h, n = 16, geometric mean (CV%)
  AUC: 1080 ng·h/mL
[12]; 160 mg twice daily
  Cmax: 231 ng/mL
  half-life: 2.7 h
[12]; 160 mg twice daily, AUC0‐τ, zanubrutinib only (Day 13), τ = 12 h, n = 16, geometric mean (CV%)
  AUC: 1050 ng·h/mL
[12]; 160 mg, AUC0‐t, zanubrutinib 160 mg b.i.d. only (Day 13), n = 17, geometric mean (CV%)
  AUC: 1030 ng·h/mL
[13]
  mean apparent terminal elimination half‐life (t1/2): 2 to 4 h
[14]
  inhibition of transporter: nor a significant inhibitor
P‐glycoprotein (P‐gp) [15]
  ratio of intestinal concentration and in vitro IC50 ([I]2/IC50): […]
CYP2C8 [16]
  IC50: […]
CYP2C19 [17]
  IC50: […]
CYP2C9 [18]
  increase in mRNA: ≥ 2 fold
P‐glycoprotein (P‐gp) [19]
  inhibition of transporter: neither a significant inhibitor
OAT3
  inhibition of transporter: nor a significant inhibitor
CYP2C9 [20]
  IC50: […]
CYP2B6 [21]
  increase in mRNA: ≥ 2 fold
OATP1B3
  inhibition of transporter: nor a significant inhibitor
OATP1B1
  inhibition of transporter: nor a significant inhibitor

## COc1ccc(-n2nc(C(N)=O)c3c2C(=O)N(c2ccc(N4CCCCC4=O)cc2)CC3)cc1 [apixaban]
CYP3A4/5
  fraction metabolized by CYP3A4/5: 15%

## O=C(NC[C@H]1CN(c2ccc(N3CCOCC3=O)cc2)C(=O)O1)c1ccc(Cl)s1 [rivaroxaban]
CYP3A4 [22]
  decrease in mean AUC: ~50%
CYP3A4/5
  fraction metabolized by CYP3A4/5: ~ 18%
